These results are taken from patent US8242145B2, “Cyclic diaryl ether compounds as antagonists of prostaglandin D2 receptors” (Panmira Pharmaceuticals, LLC, priority 2008, dated 2012).

In one assay the target is T1, human DP2 receptor (Homo sapiens, UniProt Q9Y5Y4).
T1 construct: expressed in transfected cells
T1 sequence (Q9Y5Y4 1-395): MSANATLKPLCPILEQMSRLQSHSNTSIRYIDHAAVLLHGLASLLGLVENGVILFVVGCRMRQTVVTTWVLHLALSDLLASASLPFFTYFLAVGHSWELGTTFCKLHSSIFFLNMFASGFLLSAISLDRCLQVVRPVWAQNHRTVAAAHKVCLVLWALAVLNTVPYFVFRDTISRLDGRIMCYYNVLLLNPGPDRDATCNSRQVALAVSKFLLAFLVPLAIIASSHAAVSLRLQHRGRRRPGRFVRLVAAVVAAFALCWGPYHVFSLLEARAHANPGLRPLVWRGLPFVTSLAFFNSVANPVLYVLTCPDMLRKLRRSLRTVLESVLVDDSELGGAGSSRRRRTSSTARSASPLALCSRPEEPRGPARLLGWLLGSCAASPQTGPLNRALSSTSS
Nature of the assay: DP2/CRTH2 radioligand binding assay using [3H]PGD2. To be noted: hDP2 (CRTH2) binding assay. On the procedure: The ability of a compound to bind to the human DP2 receptor is assessed via a radioligand binding assay using [^3H]PGD2. HEK293 cells stably expressing recombinant human DP2 are resuspended in 10 mM Hepes, 7.4 containing 1 mM DTT, lysed and centrifuged at 75,000×g to pellet the membranes. The membranes are resuspended in 10 mM Hepes, 7.4 containing 1 mM DTT and 10% glycerol to approximately 5 mg protein/ml. Membranes (2-10 μg protein/well) are incubated in 96-well plates with 1 nM [^3H]PGD2 and test compound in Assay Buffer (50 mM Hepes, 10 mM MnCl2, 1 mM EDTA, plus or minus 0.2% human serum albumin, pH 7.4) for 60 minutes at room temperature. The reactions are terminated by rapid filtration through Whatman GF/C glass fibre filter plates. The filter plates were pre-soaked in 0.33% polythylenimine for 30 minutes at room temperature then washed in Wash Buffer (50 mM Hepes, 0.5 M NaCl pH 7.4) prior to harvesting. After harvesting, the filter plates are washed 3 times with 1 ml cold Wash Buffer then dried. Scintillant is then added to the plates and the radioactivity retained on the filters is determined on a Packard TopCount (Perkin Elmer). Specific binding is determined as total radioactive binding minus non-specific binding in the presence of 10 μM PGD2. IC50s were determined using GraphPad prism analysis of drug titration curves.

For another assay, the target named is T2, human DP1 receptor (Homo sapiens, UniProt Q13258).
T2 construct: tissue Biological Specialty Corporation; host or cells: human platelets, membranes
T2 sequence (Q13258 1-359): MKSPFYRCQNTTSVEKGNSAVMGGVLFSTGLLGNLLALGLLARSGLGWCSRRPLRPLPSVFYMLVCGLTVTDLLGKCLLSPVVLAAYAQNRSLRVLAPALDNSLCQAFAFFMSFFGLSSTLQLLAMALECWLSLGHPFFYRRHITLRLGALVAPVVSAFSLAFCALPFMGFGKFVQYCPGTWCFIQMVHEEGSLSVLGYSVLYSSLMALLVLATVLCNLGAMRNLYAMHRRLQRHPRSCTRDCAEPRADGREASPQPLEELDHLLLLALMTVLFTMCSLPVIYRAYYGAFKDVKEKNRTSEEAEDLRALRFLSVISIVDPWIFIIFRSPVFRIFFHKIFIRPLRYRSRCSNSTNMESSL
As to the kind of experiment: DP1 radioligand binding assay using [3H]BWA868C. To be noted: hDP1 binding. On the procedure: The ability of a compound to bind to the human DP1 receptor was evaluated via a radioligand membrane binding assay using the DP1 selective synthetic ligand [^3H]BW A868C. Packed human platelets (Biological Specialty Corporation), were resuspended in 6 volumes of Hepes/HBSS buffer (10 mM Hepes, 1 mM DTT in Hanks Balanced Salt Solution (HBSS)), lysed and centrifuged at 75,000×g to pellet the membranes. Membranes were resuspended in Hepes/HBSS buffer to approximately 12 mg protein/ml. Membranes (20 μg protein/well) are incubated in 96-well plates with 2 nM [^3H]BWA868C and test compound in Assay Buffer (50 mM Hepes, 10 mM MnCl2, 1 mM EDTA, plus or minus 0.2% human serum albumin, pH 7.4) for 60 minutes at room temperature. The reactions are terminated by rapid filtration through Whatman GF/C glass fibre filter plates. The filter plates were pre-soaked in 0.33% polethylenimine for 30 minutes at room temperature then washed in Wash Buffer (50 mM Hepes, 0.5 M NaCl pH 7.4) prior to harvesting. After harvesting, the filter plates are washed 3 times with 1 ml cold Wash Buffer then dried. Scintillant is then added to the plates and the radioactivity retained on the filters is determined on a Packard TopCount (Perkin Elmer). Specific binding is determined as total radioactive binding minus non-specific binding in the presence of 10 μM BW A868C. IC50s were determined using GraphPad prism analysis of drug titration curves.

Structures are written as SMILES.

One may read the IC50 as the concentration that gives 50% inhibition. Low readings indicate inhibition by little substance, high ones a need for much substance.

For the compound `O=C(O)Cc1cccc(Oc2ccccc2CN2CCOC2=O)c1` [Compound 1-1, {3-[2-(2-Oxo-oxazolidin-3-ylmethyl)-phenoxy]-phenyl}-acetic acid], the IC50 on human DP2 receptor and on human DP1 receptor was above 1000 nM each time.

As for `O=C(O)Cc1cccc(Oc2ccc(F)cc2CN2CCOC2=O)c1` [Compound 1-2, {3-[4-Fluoro-2-(2-oxo-oxazolidin-3-ylmethyl)-phenoxy]-phenyl}-acetic acid], the IC50 on human DP2 receptor and on human DP1 receptor was above 1000 nM throughout.

Consider `Cc1ccc(Oc2cccc(CC(=O)O)c2)c(CN2CCOC2=O)c1` [Compound 1-4, {3-[4-Methyl-2-(2-oxo-oxazolidin-3-ylmethyl)-phenoxy]-phenyl}-acetic acid], for which the IC50 at human DP2 receptor is 300 to 1000 nM; at human DP1 receptor, above 1000 nM.

As to `CC(C)(C(=O)O)c1cccc(Oc2ccc(C(F)(F)F)cc2CN2CCOC2=O)c1` [Compound 1-11, 2-Methyl-2-{3-[2-(2-oxo-oxazolidin-3-ylmethyl)-4-trifluoromethyl-phenoxy]-phenyl}-propionic acid], the IC50 at human DP2 receptor and at human DP1 receptor was above 1000 nM throughout.

Turning to `O=C(O)Cc1cc(Oc2ccc(C(F)(F)F)cc2CN2CCOC2=O)ccc1Br` [Compound 1-12, {2-Bromo-5-[2-(2-oxo-oxazolidin-3-ylmethyl)-4-trifluoromethyl-phenoxy]-phenyl}-acetic acid], the IC50 at human DP2 receptor is above 1000 nM.

Regarding `C[C@H]1[C@@H](c2ccccc2)OC(=O)N1Cc1cc(-c2ccccn2)ccc1Oc1cccc(CC(=O)O)c1` [Compound 1-19, {3-[2-((4S,5R)-4-Methyl-2-oxo-5-phenyl-oxazolidin-3-ylmethyl)-4-pyridin-2-yl-phenoxy]-phenyl}-acetic acid], the half-maximal inhibitory concentration (IC50) at human DP2 receptor and at human DP1 receptor was below 300 nM in each case.

Regarding `C[C@H]1[C@@H](c2ccccc2)OC(=O)N1Cc1cc(-c2cnc(N)cn2)ccc1Oc1cccc(CC(=O)O)c1` [Compound 1-20, {3-[4-(5-Amino-pyrazin-2-yl)-2-((4S,5R)-4-methyl-2-oxo-5-phenyl-oxazolidin-3-ylmethyl)-phenoxy]-phenyl}-acetic acid], the IC50 is 300 to 1000 nM on human DP2 receptor and below 300 nM on human DP1 receptor.

`C[C@H]1[C@@H](c2ccccc2)OC(=O)N1Cc1cc(-c2cnn(C)c2)ccc1Oc1cccc(CC(=O)O)c1` [Compound 1-21, {3-[2-((4S,5R)-4-Methyl-2-oxo-5-phenyl-oxazolidin-3-ylmethyl)-4-(1-methyl-1H-pyrazol-4-yl)-phenoxy]-phenyl}-acetic acid]: the half-maximal inhibitory concentration (IC50) at human DP2 receptor and at human DP1 receptor was below 300 nM throughout.

On to `Cc1ncc(-c2ccc(Oc3cccc(CC(=O)O)c3)c(CN3C(=O)O[C@H](c4ccccc4)[C@@H]3C)c2)[nH]1` [Compound 1-23, {3-[4-(2-Methyl-3H-imidazol-4-yl)-2-((4S,5R)-4-methyl-2-oxo-5-phenyl-oxazolidin-3-ylmethyl)-phenoxy]-phenyl}-acetic acid], for which the values for the IC50 at human DP2 receptor and at human DP1 receptor were below 300 nM and above 1000 nM, respectively.

In the case of `C[C@H]1[C@@H](c2ccccc2)OC(=O)N1Cc1cc(-c2ccc(C(N)=O)cn2)ccc1Oc1cccc(CC(=O)O)c1` [Compound 1-68, {3-[4-(5-Carbamoyl-pyridin-2-yl)-2-((4S,5R)-4-methyl-2-oxo-5-phenyl-oxazolidin-3-ylmethyl)-phenoxy]-phenyl}-acetic acid], the IC50 is 300 to 1000 nM at human DP2 receptor and below 300 nM at human DP1 receptor.

In the case of `C[C@H]1[C@@H](c2ccccc2)OC(=O)N1Cc1cc(-c2ccc(N)cn2)ccc1Oc1cccc(CC(=O)O)c1` [Compound 1-69, {3-[4-(5-Amino-pyridin-2-yl)-2-((4S,5R)-4-methyl-2-oxo-5-phenyl-oxazolidin-3-ylmethyl)-phenoxy]-phenyl}-acetic acid], the half-inhibitory concentration (IC50) at human DP2 receptor and on human DP1 receptor was below 300 nM in each case.

`Cc1nc(-c2ccc(Oc3cccc(CC(=O)O)c3)c(CN3C(=O)O[C@H](c4ccccc4)[C@@H]3C)c2)cn1C` [Compound 1-70, {3-[4-(1,2-Dimethyl-1H-imidazol-4-yl)-2-((4S,5R)-4-methyl-2-oxo-5-phenyl-oxazolidin-3-ylmethyl)-phenoxy]-phenyl}-acetic acid]: the IC50 at human DP2 receptor was below 300 nM; at human DP1 receptor, above 1000 nM.

In turn, `COc1ccc(CC(=O)O)cc1Oc1ccc(NC(=O)C(C)(C)C)cc1CN1CCOC1=O` [Compound 1-100, {3-[4-(2,2-Dimethyl-propionylamino)-2-(2-oxo-oxazolidin-3-ylmethyl)-phenoxy]-4-methoxy-phenyl}-acetic acid] had an IC50 at human DP2 receptor below 300 nM.

At human DP2 receptor, `COc1ccc(CC(=O)O)cc1Oc1ccc(NC(=O)Cc2ccccc2)cc1CN1CCOC1=O` [Compound 1-101, {4-Methoxy-3-[2-(2-oxo-oxazolidin-3-ylmethyl)-4-phenylacetylamino-phenoxy]-phenyl}-acetic acid] returned an IC50 below 300 nM.

On human DP2 receptor, `COc1ccc(CC(=O)O)cc1Oc1ccc(NC(=O)C2CCCCC2)cc1CN1CCOC1=O` [Compound 1-102, {3-[4-(Cyclohexanecarbonyl-amino)-2-(2-oxo-oxazolidin-3-ylmethyl)-phenoxy]-4-methoxy-phenyl}-acetic acid] returned an IC50 below 300 nM.

As for `COc1ccc(CC(=O)O)cc1Oc1ccc(NC(=O)C(C)C)cc1CN1CCOC1=O` [Compound 1-103, {3-[4-Isobutyrylamino-2-(2-oxo-oxazolidin-3-ylmethyl)-phenoxy]-4-methoxy-phenyl}-acetic acid], at human DP2 receptor, the IC50 was below 300 nM.

With `COc1ccc(CC(=O)O)cc1Oc1ccc(NC(=O)c2ccncc2)cc1CN1CCOC1=O` [Compound 1-104, (4-Methoxy-3-{2-(2-oxo-oxazolidin-3-ylmethyl)-4-[(pyridine-4-carbonyl)-amino]-phenoxy}-phenyl)-acetic acid], on human DP2 receptor, the IC50 was below 300 nM.

With `COc1ccc(CC(=O)O)cc1Oc1ccc(NC(=O)c2cccnc2)cc1CN1CCOC1=O` [Compound 1-105, (4-Methoxy-3-{2-(2-oxo-oxazolidin-3-ylmethyl)-4-[(pyridine-3-carbonyl)-amino]-phenoxy}-phenyl)-acetic acid], the half-inhibitory concentration (IC50) at human DP2 receptor is above 1000 nM.

With `COc1ccc(CC(=O)O)cc1Oc1ccc(NC(=O)COc2ccccc2)cc1CN1CCOC1=O` [Compound 1-106, {4-Methoxy-3-[2-(2-oxo-oxazolidin-3-ylmethyl)-4-(2-phenoxy-acetylamino)-phenoxy]-phenyl}-acetic acid], the IC50 at human DP2 receptor was below 300 nM.

For `COCC(=O)Nc1ccc(Oc2cc(CC(=O)O)ccc2OC)c(CN2CCOC2=O)c1` [Compound 1-107, {4-Methoxy-3-[4-(2-methoxy-acetylamino)-2-(2-oxo-oxazolidin-3-ylmethyl)-phenoxy]-phenyl}-acetic acid], on human DP2 receptor, the IC50 lay in the range of 300 to 1000 nM.

With `COc1ccc(CC(=O)O)cc1Oc1ccc(NC(=O)NCc2ccccc2)cc1CN1CCOC1=O` [Compound 1-108, {3-[4-(3-Benzyl-ureido)-2-(2-oxo-oxazolidin-3-ylmethyl)-phenoxy]-4-methoxy-phenyl}-acetic acid], the IC50 on human DP2 receptor was below 300 nM.
